Data on 16 compounds can be found in PubChem BioAssay AID324 (DTP/NCI, 2004).

Toxic doses and inconclusive results are not listed. Starred links: 1 amine or outer side, 2 acyl side, 3 side chain; linkers in the order of their positions; H or OH if unused. Positions of bridges follow the written chain, without caps; N, C: chain ends. Non-standard residues stand in square brackets, D forms with d. Residues, ends and D or L forms follow the SMILES beside them. Chains are numbered I, II in the order given. Actinocin(9to1) = Cc1c2oc3c(C)ccc(C(=O)[*:1])c3nc-2c(C(=O)[*:2])c(N)c1=O; aThr = C[C@H](O)[C@H](N)C(=O)O; NMeV = CN[C@H](C(=O)O)C(C)C; Sar = CNCC(=O)O

In this assay the test system is CD2F1 mice, AMSA-resistant P388 leukemia ip, median survival T/C. Description: NCI In Vivo Anticancer Drug Screen. Data for tumor model P388 Leukemia resistant to AMSA; NSC 249992 (intraperitoneal) in CD2F1 (CDF1) mice. As to conditions: endpoint: median survival time, higher = longer survival. The method, then:
The antitumor activity of compounds was measured in mice bearing transplantable tumors. Survival or tumor size were measured and the results are expressed as the measurement made in the treated group (T) divided by the measurement made in the vehicle treated control group (C). The tumor model used in this assay is P388 Leukemia resistant to AMSA; NSC 249992 (intraperitoneal) in CD2F1 (CDF1) mice

Setting [1] is: dose: 0.13 mg/kg/injection, schedule: Q04DX003 (ip), vehicle: water.
[2] abbreviates: dose: 0.21 mg/kg/injection, schedule: Q04DX003 (ip), vehicle: water.
Where [3] appears, read: dose: 0.6 mg/kg/injection, schedule: Q04DX003 (ip), vehicle: water.
Where [4] appears, read: dose: 1.0 mg/kg/injection, schedule: Q04DX003 (ip), vehicle: water.
The mark [5] stands for this setting: dose: 0.36 mg/kg/injection, schedule: Q04DX003 (ip), vehicle: water.

For `COc1cc2c[n+](C)c3c4cc5c(cc4ccc3c2cc1OC)OCO5`, the T/C (dose: 25.92 mg/kg/injection, schedule: Q04DX003 (ip), vehicle: distilled water + Tween-80) is 118 % of control; the T/C (dose: 43.2 mg/kg/injection, schedule: Q04DX003 (ip), vehicle: distilled water + Tween-80) was 123 % of control; the T/C (dose: 120.0 mg/kg/injection, schedule: Q04DX003 (ip), vehicle: distilled water + Tween-80) is 115 % of control.

Regarding `NCCCCS(=O)(=O)Nc1ccc(Nc2c3ccccc3nc3cc([N+](=O)[O-])ccc23)cc1`, the T/C is, setting by setting: (dose: 38.9 mg/kg/injection, schedule: Q04DX003 (ip), vehicle: water) 93 % of control; (dose: 64.8 mg/kg/injection, schedule: Q04DX003 (ip), vehicle: water) 93 % of control; (dose: 108.0 mg/kg/injection, schedule: Q04DX003 (ip), vehicle: water) 95 % of control.

Take `CCCCCCCC(=O)OCC(=O)[C@]1(O)Cc2c(O)c3c(c(O)c2[C@@H](OC2CC(N)C(O)C(C)O2)C1)C(=O)c1c(OC)cccc1C3=O` (stereo not given in full): under “dose: 13.3 mg/kg/injection, schedule: Q04DX003 (ip), vehicle: water”, the T/C was 102 % of control.

Consider `COc1cccc2c1C(=O)c1c(O)c3c(c(O)c1C2=O)C[C@@](O)(C(=O)CO)C[C@@H]3OC1CC([N+](C)(C)C)C(O)C(C)O1` (stereo not given in full), for which the T/C is, setting by setting: (dose: 3.89 mg/kg/injection, schedule: Q04DX003 (ip), vehicle: water) 103 % of control; (dose: 6.48 mg/kg/injection, schedule: Q04DX003 (ip), vehicle: water) 111 % of control; (dose: 10.8 mg/kg/injection, schedule: Q04DX003 (ip), vehicle: water) 107 % of control; (dose: 18.0 mg/kg/injection, schedule: Q04DX003 (ip), vehicle: water) 108 % of control; (dose: 30.0 mg/kg/injection, schedule: Q04DX003 (ip), vehicle: water) 100 % of control.

On to `NC(=O)c1csc(C2OC(CO)C(O)C2O)n1` (stereo not given), for which the T/C reads like this: (dose: 330.0 mg/kg/injection, schedule: Q01DX009 (ip), vehicle: water) 188 % of control; (dose: 500.0 mg/kg/injection, schedule: Q01DX009 (ip), vehicle: water) 88 % of control.

Consider `COc1c(O)c2c(c3cc(C(=O)N4CCc5c4c(O)c(OC)c4[nH]c(C(=O)N6CC7CC78C6=CC(=O)c6[nH]cc(C)c68)cc54)[nH]c13)CCN2C(N)=O` (stereo not given), for which the T/C was 118 % of control (dose: 0.04 mg/kg/injection, schedule: Q01DX001 (ip), vehicle: DMSO); 123 % of control (dose: 0.06 mg/kg/injection, schedule: Q01DX001 (ip), vehicle: DMSO); 109 % of control (dose: 0.18 mg/kg/injection, schedule: Q01DX001 (ip), vehicle: DMSO).

Consider `CC(CN1CC(=O)NC(=O)C1)N1CC(=O)NC(=O)C1` (stereo not given), for which, for the setting “dose: 300.0 mg/kg/injection, schedule: Q04DX003 (ip), vehicle: saline”, the T/C was 198 % of control.

For `COc1cc([C@@H]2c3cc4c(cc3[C@@H](OC3OC5COC(C)OC5C(O)C3O)[C@H]3COC(=O)[C@H]23)OCO4)cc(OC)c1O` (stereo not given in full), the T/C (dose: 6.24 mg/kg/injection, schedule: Q04DX003 (ip), vehicle: water) is 124 % of control; the T/C (dose: 17.3 mg/kg/injection, schedule: Q04DX003 (ip), vehicle: water) was 118 % of control; the T/C (dose: 18.0 mg/kg/injection, schedule: Q04DX003 (ip), vehicle: Klucel (hydroxypropylcellulose) (HPC)) was 103 % of control; the T/C (dose: 27.0 mg/kg/injection, schedule: Q04DX003 (ip), vehicle: Klucel (hydroxypropylcellulose) (HPC)) is 91 % of control; the T/C (dose: 28.8 mg/kg/injection, schedule: Q04DX003 (ip), vehicle: clinical formulation) is 167 % of control; the T/C (dose: 28.8 mg/kg/injection, schedule: Q04DX003 (ip), vehicle: water) is 162 % of control. Besides, the T/C runs as follows: (dose: 48.0 mg/kg/injection, schedule: Q04DX003 (ip), vehicle: water) 108 % of control; (dose: 60.0 mg/kg/injection, schedule: Q04DX003 (ip), vehicle: Klucel (hydroxypropylcellulose) (HPC)) 87 % of control.

`COC(=O)C[C@](O)(CCCC(C)(C)O)C(=O)O[C@@H]1C(OC)=C[C@]23CCCN2CCc2cc4c(cc2[C@H]13)OCO4`: the T/C is 153 % of control (dose: 1.8 mg/kg/injection, schedule: Q04DX003 (ip), vehicle: saline + alcohol) and 163 % of control (dose: 3.0 mg/kg/injection, schedule: Q04DX003 (ip), vehicle: saline + alcohol).

Take `O=C1c2ccccc2C(=O)c2c(NCCNCCO)ccc(NCCNCCO)c21`: the T/C is 103 % of control (dose: 13.0 mg/kg/injection, schedule: Q04DX003 (ip), vehicle: saline); 103 % of control (dose: 21.6 mg/kg/injection, schedule: Q04DX003 (ip), vehicle: saline); 103 % of control (dose: 36.0 mg/kg/injection, schedule: Q04DX003 (ip), vehicle: saline); 108 % of control (dose: 60.0 mg/kg/injection, schedule: Q04DX003 (ip), vehicle: saline); 113 % of control (dose: 100.0 mg/kg/injection, schedule: Q04DX003 (ip), vehicle: saline).

`CC1OC(OC2CC(O)(C(=O)CO)Cc3c(O)c4c(c(O)c32)C(=O)c2ccccc2C4=O)CC(N)C1O` (stereo not given): the T/C reads like this: under setting [1], 114 % of control; under setting [2], 115 % of control; under setting [3], 117 % of control; under setting [4], 123 % of control.

As for `CC(=O)C1(O)Cc2c(O)c3c(c(O)c2C(OC2CC(N)C(O)C(C)O2)C1)C(=O)c1ccccc1C3=O` (stereo not given), the T/C is, setting by setting: under setting [1], 111 % of control; under setting [2], 122 % of control; under setting [5], 124 % of control; under setting [3], 105 % of control.

With `CC(=O)[C@]1(O)Cc2c(O)c3c(c(O)c2[C@@H](OC2CC(N)C(O)C(C)O2)C1)C(=O)c1c(O)cccc1C3=O` (stereo not given in full), the T/C reads like this: under setting [1], 122 % of control; under setting [2], 115 % of control; under setting [5], 109 % of control; under setting [3], 124 % of control; under setting [4], 97 % of control.

On to `Cc1c2oc3c(C)ccc(C(=O)N[C@@H]4C(=O)N[C@H](C(C)C)C(=O)N5CCC[C@H]5C(=O)N(C)CC(=O)N(C)[C@@H](C(C)C)C(=O)O[C@H]4C)c3nc-2c(C(=O)N[C@@H]2C(=O)N[C@H](C(C)C)C(=O)N3CCC[C@H]3C(=O)N(C)CC(=O)N(C)[C@@H](C(C)C)C(=O)O[C@H]2C)c(N)c1=O` (I: [aThr][dV]P[Sar][NMeV] / II: [aThr][dV]P[Sar][NMeV]; ester I:1-I:C, II:1-II:C; linker I:N-II:N via Actinocin(9to1)), for which the T/C reads like this: (dose: 0.08 mg/kg/injection, schedule: Q04DX003 (ip), vehicle: saline + alcohol) 171 % of control; (dose: 0.13 mg/kg/injection, schedule: Q04DX003 (ip), vehicle: saline + alcohol) 223 % of control; (dose: 0.18 mg/kg/injection, schedule: Q04DX003 (ip), vehicle: saline + alcohol) 155 % of control; (dose: 0.3 mg/kg/injection, schedule: Q04DX003 (ip), vehicle: saline + alcohol) 176 % of control; (dose: 0.5 mg/kg/injection, schedule: Q04DX003 (ip), vehicle: saline + alcohol) 219 % of control.

In the case of `Nc1ncn(C2OC(CO)C(O)C2O)c(=O)n1` (stereo not given), the T/C is, setting by setting: (dose: 2.59 mg/kg/injection, schedule: Q04DX003 (ip), vehicle: saline) 156 % of control; (dose: 4.32 mg/kg/injection, schedule: Q04DX003 (ip), vehicle: saline) 200 % of control; (dose: 7.2 mg/kg/injection, schedule: Q04DX003 (ip), vehicle: saline) 200 % of control; (dose: 12.0 mg/kg/injection, schedule: Q04DX003 (ip), vehicle: saline) 211 % of control; (dose: 20.0 mg/kg/injection, schedule: Q04DX003 (ip), vehicle: saline) 276 % of control.

As for `COc1cccc2c1C(=O)c1c(O)c3c(c(O)c1C2=O)C[C@@](O)(C(C)=O)C[C@@H]3OC1CC(N(C)C)C(O)C(C)O1` (stereo not given in full), the T/C was 150 % of control (dose: 3.6 mg/kg/injection, schedule: Q04DX003 (ip), vehicle: water); 168 % of control (dose: 6.0 mg/kg/injection, schedule: Q04DX003 (ip), vehicle: water); 166 % of control (dose: 10.0 mg/kg/injection, schedule: Q04DX003 (ip), vehicle: water); 107 % of control (dose: 16.7 mg/kg/injection, schedule: Q04DX003 (ip), vehicle: water).
